Among the data in PubChem BioAssay AID1259407 (Chemical Carcinogenesis Research Information System (CCRIS), 2018) are mutagenic call values, retold here.

Structures are written as SMILES. The source made the active and inactive calls. No rule for the calls is given here.

This data set concerns CCRIS mutagenicity, Ames/micronucleus/aberration tests. Nature of the data set: CCRIS mutagenicity studies.
[1] abbreviates: Test System: AMES SALMONELLA TYPHIMURIUM, Strain/Indicator: TA100, Metabolic Activation: NONE, Method: PREINCUBATION
Setting [2] is: Test System: AMES SALMONELLA TYPHIMURIUM, Strain/Indicator: TA100, Metabolic Activation: RAT, LIVER, S-9, AROCLOR 1254, Method: PREINCUBATION
Setting [3] is: Test System: AMES SALMONELLA TYPHIMURIUM, Strain/Indicator: TA1535, Metabolic Activation: NONE, Method: PREINCUBATION

Regarding `O=C1C=CC(=O)C=C1`, the mutagenic call (Test System: AMES SALMONELLA TYPHIMURIUM, Strain/Indicator: TA97, Metabolic Activation: NONE, Method: STANDARD PLATE) was “inactive; negative”; the mutagenic call (Test System: AMES SALMONELLA TYPHIMURIUM, Strain/Indicator: TA97, Metabolic Activation: RAT, LIVER, S-9, AROCLOR 1254, Method: PREINCUBATION) is “inactive; negative”; the mutagenic call (Test System: AMES SALMONELLA TYPHIMURIUM, Strain/Indicator: TA97, Metabolic Activation: RAT, LIVER, S-9, PCB, Method: STANDARD PLATE) was “inactive; negative”; the mutagenic call (Test System: AMES SALMONELLA TYPHIMURIUM, Strain/Indicator: TA97, Metabolic Activation: RAT, LIVER, S-9, PHENOBARBITAL, Method: PREINCUBATION) was “inactive; negative”; the mutagenic call (Test System: AMES SALMONELLA TYPHIMURIUM, Strain/Indicator: TA98, Metabolic Activation: NONE, Method: STANDARD PLATE) is “inactive; negative”; the mutagenic call (Test System: AMES SALMONELLA TYPHIMURIUM, Strain/Indicator: TA98, Metabolic Activation: RAT, LIVER, S-9, AROCLOR 1254, Method: PREINCUBATION) was “inactive; negative”. Moreover, the mutagenic call (Test System: AMES SALMONELLA TYPHIMURIUM, Strain/Indicator: TA98, Metabolic Activation: RAT, LIVER, S-9, PCB, Method: STANDARD PLATE) is “inactive; negative”; the mutagenic call (Test System: AMES SALMONELLA TYPHIMURIUM, Strain/Indicator: TA98, Metabolic Activation: RAT, LIVER, S-9, PHENOBARBITAL AND 5,6-BENZOFLAVONE, Method: PREINCUBATION) was “inactive; negative”; the mutagenic call (Test System: AMES SALMONELLA TYPHIMURIUM, Strain/Indicator: TA98, Metabolic Activation: RAT, LIVER, S-9, PHENOBARBITAL, Method: PREINCUBATION) is “active; positive”; the mutagenic call (Test System: AMES SALMONELLA TYPHIMURIUM, Strain/Indicator: TA100, Metabolic Activation: NONE, Method: FLUCTUATION TEST) was “inactive; negative”; the mutagenic call under setting [1] is “inactive; negative”; the mutagenic call (Test System: AMES SALMONELLA TYPHIMURIUM, Strain/Indicator: TA100, Metabolic Activation: NONE, Method: STANDARD PLATE) is “inactive; negative”. Besides, the mutagenic call reads like this: under setting [2], “inactive; negative”; (Test System: AMES SALMONELLA TYPHIMURIUM, Strain/Indicator: TA100, Metabolic Activation: RAT, LIVER, S-9, PCB, Method: FLUCTUATION TEST) “active; positive”; (Test System: AMES SALMONELLA TYPHIMURIUM, Strain/Indicator: TA100, Metabolic Activation: RAT, LIVER, S-9, PCB, Method: STANDARD PLATE) “inactive; negative”; (Test System: AMES SALMONELLA TYPHIMURIUM, Strain/Indicator: TA100, Metabolic Activation: RAT, LIVER, S-9, PHENOBARBITAL, Method: PREINCUBATION) “active; positive”; (Test System: AMES SALMONELLA TYPHIMURIUM, Strain/Indicator: TA102, Metabolic Activation: NONE, Method: PREINCUBATION) “inactive; negative”; (Test System: AMES SALMONELLA TYPHIMURIUM, Strain/Indicator: TA102, Metabolic Activation: RAT, LIVER, S-9, AROCLOR 1254, Method: PREINCUBATION) “inactive; negative”. For the same molecule, the mutagenic call by setting is: (Test System: AMES SALMONELLA TYPHIMURIUM, Strain/Indicator: TA102, Metabolic Activation: RAT, LIVER, S-9, PHENOBARBITAL AND 5,6-BENZOFLAVONE, Method: PREINCUBATION) “inactive; negative”; (Test System: AMES SALMONELLA TYPHIMURIUM, Strain/Indicator: TA104, Metabolic Activation: RAT, LIVER, S-9, AROCLOR 1254, Method: PREINCUBATION) “inactive; negative”; (Test System: AMES SALMONELLA TYPHIMURIUM, Strain/Indicator: TA104, Metabolic Activation: RAT, LIVER, S-9, PHENOBARBITAL AND 5,6-BENZOFLAVONE, Method: PREINCUBATION) “inactive; negative”; under setting [3], “inactive; negative”; (Test System: AMES SALMONELLA TYPHIMURIUM, Strain/Indicator: TA1535, Metabolic Activation: RAT, LIVER, S-9, AROCLOR 1254, Method: PREINCUBATION) “inactive; negative”; (Test System: AMES SALMONELLA TYPHIMURIUM, Strain/Indicator: TA2637, Metabolic Activation: NONE, Method: PREINCUBATION) “inactive; negative”. Moreover, the mutagenic call reads like this: (Test System: AMES SALMONELLA TYPHIMURIUM, Strain/Indicator: TA2637, Metabolic Activation: RAT, LIVER, S-9, PHENOBARBITAL AND 5,6-BENZOFLAVONE, Method: PREINCUBATION) “inactive; negative”; (Test System: CHINESE HAMSTER V-79, Strain/Indicator: V-79/6-THIOGUANINE, Metabolic Activation: NONE) “active; positive”; (Test System: MOUSE LYMPHOMA, Strain/Indicator: L5178Y (TK+/TK-), Metabolic Activation: NONE, Method: SUSPENSION/PLATE) “active; positive”.

For the molecule `CCC[CH2][Sn]([CH2]CCC)([O]C(C)=O)[O]C(C)=O`, the mutagenic call was “inactive; negative” (Test System: AMES SALMONELLA TYPHIMURIUM, Strain/Indicator: TA98, Metabolic Activation: HAMSTER, LIVER, S-9, AROCLOR 1254 (10%), Method: PREINCUBATION); “inactive; negative” (Test System: AMES SALMONELLA TYPHIMURIUM, Strain/Indicator: TA98, Metabolic Activation: NONE, Method: PREINCUBATION); “inactive; negative” (Test System: AMES SALMONELLA TYPHIMURIUM, Strain/Indicator: TA98, Metabolic Activation: RAT, LIVER, S-9, AROCLOR 1254 (10%), Method: PREINCUBATION); “inactive; negative” (Test System: AMES SALMONELLA TYPHIMURIUM, Strain/Indicator: TA100, Metabolic Activation: HAMSTER, LIVER, S-9, AROCLOR 1254 (10%), Method: PREINCUBATION); “inactive; negative” under setting [1]; “inactive; negative” (Test System: AMES SALMONELLA TYPHIMURIUM, Strain/Indicator: TA100, Metabolic Activation: RAT, LIVER, S-9, AROCLOR 1254 (10%), Method: PREINCUBATION). Besides, the mutagenic call is, setting by setting: (Test System: AMES SALMONELLA TYPHIMURIUM, Strain/Indicator: TA1535, Metabolic Activation: HAMSTER, LIVER, S-9, AROCLOR 1254 (10%), Method: PREINCUBATION) “inactive; negative”; under setting [3], “inactive; negative”; (Test System: AMES SALMONELLA TYPHIMURIUM, Strain/Indicator: TA1535, Metabolic Activation: RAT, LIVER, S-9, AROCLOR 1254 (10%), Method: PREINCUBATION) “inactive; negative”; (Test System: AMES SALMONELLA TYPHIMURIUM, Strain/Indicator: TA1537, Metabolic Activation: HAMSTER, LIVER, S-9, AROCLOR 1254 (10%), Method: PREINCUBATION) “inactive; negative”; (Test System: AMES SALMONELLA TYPHIMURIUM, Strain/Indicator: TA1537, Metabolic Activation: NONE, Method: PREINCUBATION) “inactive; negative”; (Test System: AMES SALMONELLA TYPHIMURIUM, Strain/Indicator: TA1537, Metabolic Activation: RAT, LIVER, S-9, AROCLOR 1254 (10%), Method: PREINCUBATION) “inactive; negative”.

For the molecule `Cc1cc2ccccc2c2cc3c(cc12)[C@H](O)[C@@H](O)C=C3`, the mutagenic call under setting [2] is “active; positive”.
